Experimental data from patent US10111432B2, “Picolinamide N-oxide compounds with fungicidal activity” (Dow AgroSciences LLC, priority 2016, dated 2018).
Read-outs that look alike come from different tables or passages of the source.

What was measured:
Zymoseptoria tritici = assay: Fungicidal activity: leaf blotch of wheat (SEPTTR), disease control on wheat seedlings; type: in vivo; settings: for pest or weed control at 100 ppm: high volume application; for pest or weed control at 121.5 g/ha: low volume application, 121.5 g/H
Protocol: Technical grades of materials were dissolved in acetone, which were then mixed with nine volumes of water (H2O) containing 110 ppm Triton X-100. The fungicide solutions were applied onto wheat seedlings using an automated booth sprayer to run-off. All sprayed plants were allowed to air dry prior to further handling. All fungicides were evaluated using the aforementioned method for their activity vs. all target diseases, unless stated otherwise. Wheat leaf blotch and brown rust activity were also evaluated using track spray applications, in which case the fungicides were formulated as EC formulations, containing 0.1% Trycol 5941 in the spray solutions. Wheat plants (variety Yuma) were grown from seed in a greenhouse in 50% mineral soil/50% soil-less Metro mix until the first leaf was fully emerged, with 7-10 seedlings per pot. These plants were inoculated with an aqueous spore suspension of Zymoseptoria tritici either prior to or after fungicide treatments. After inoculation the plants were kept in 100% relative humidity (one day in a dark dew chamber followed by two to three days in a lighted dew chamber at 20° C.) to permit spores to germinate and infect the leaf. The plants were then transferred to a greenhouse set at 20° C. for disease to develop. When disease symptoms were fully expressed on the 1st leaves of untreated plants, infection levels were assessed on a scale of 0 to 100 percent disease severity. Percent disease control was calculated using the ratio of disease severity on treated plants relative to untreated plants.

Puccinia triticina = assay: Fungicidal activity: wheat brown rust (PUCCRT), disease control on wheat seedlings; type: in vivo; settings: for pest or weed control at 100 ppm: high volume application; for pest or weed control at 121.5 g/ha: low volume application, 121.5 g/H
Protocol: Technical grades of materials were dissolved in acetone, which were then mixed with nine volumes of water (H2O) containing 110 ppm Triton X-100. The fungicide solutions were applied onto wheat seedlings using an automated booth sprayer to run-off. All sprayed plants were allowed to air dry prior to further handling. All fungicides were evaluated using the aforementioned method for their activity vs. all target diseases, unless stated otherwise. Wheat leaf blotch and brown rust activity were also evaluated using track spray applications, in which case the fungicides were formulated as EC formulations, containing 0.1% Trycol 5941 in the spray solutions. Wheat plants (variety Yuma) were grown from seed in a greenhouse in 50% mineral soil/50% soil-less Metro mix until the first leaf was fully emerged, with 7-10 seedlings per pot. These plants were inoculated with an aqueous spore suspension of Puccinia triticina either prior to or after fungicide treatments. After inoculation the plants were kept in a dark dew room at 22° C. with 100% relative humidity overnight to permit spores to germinate and infect the leaf. The plants were then transferred to a greenhouse set at 24° C. for disease to develop. Fungicide formulation, application and disease assessment followed the procedures as described in the Example A. Results of the evaluations are shown below in Table 4.

[1] = 24 h, 1 day protectant, read-out: SEPTTR disease control, 1DP, HV activity at 100 ppm
[2] = 24 h, 1 day protectant, read-out: SEPTTR disease control, 1DP, LV activity at 121.5 g/H
[3] = 72 h, 3 day curative, read-out: SEPTTR disease control, 3DC, HV activity at 100 ppm
[4] = 72 h, 3 day curative, read-out: SEPTTR disease control, 3DC, LV activity at 121.5 g/H
[5] = 24 h, 1 day protectant, read-out: PUCCRT disease control, 1DP, HV activity at 100 ppm
[6] = 24 h, 1 day protectant, read-out: PUCCRT disease control, 1DP, LV activity at 121.5 g/H
[7] = 72 h, 3 day curative, read-out: PUCCRT disease control, 3DC, HV activity at 100 ppm
[8] = 72 h, 3 day curative, read-out: PUCCRT disease control, 3DC, LV activity at 121.5 g/H

Row | Structure (SMILES) | pest or weed control at 100 ppm (Zymoseptoria tritici; [1]) [%] | pest or weed control at 121.5 g/ha (Zymoseptoria tritici; [2]) [%] | pest or weed control at 100 ppm (Zymoseptoria tritici; [3]) [%] | pest or weed control at 121.5 g/ha (Zymoseptoria tritici; [4]) [%] | pest or weed control at 100 ppm (Puccinia triticina; [5]) [%] | pest or weed control at 121.5 g/ha (Puccinia triticina; [6]) [%] | pest or weed control at 100 ppm (Puccinia triticina; [7]) [%] | pest or weed control at 121.5 g/ha (Puccinia triticina; [8]) [%]
1 | COc1cc(F)ccc1[C@@H](c1ccc(F)cc1)[C@H](C)OC(=O)[C@H](C)NC(=O)c1c(O)c(OC)cc[n+]1[O-] [Compound 24] | > 80 | > 80 | > 80 | > 80 | > 80 | > 80 | > 80 | ≤ 80
2 | COc1cc[n+]([O-])c(C(=O)N[C@@H](C)C(=O)O[C@@H](C)C(c2ccc(C)c(C)c2)c2ccc(C)c(C)c2)c1O [Compound 15] | – | > 80 | – | > 80 | – | ≤ 80 | – | ≤ 80
3 | COc1cc[n+]([O-])c(C(=O)N[C@@H](C)C(=O)O[C@@H](C)[C@@H](c2ccccc2)c2ccc(F)c(C)c2)c1O [Compound 31] | > 80 | > 80 | > 80 | > 80 | > 80 | > 80 | > 80 | ≤ 80
4 | COc1cc[n+]([O-])c(C(=O)N[C@@H](C)C(=O)O[C@@H](C)C(c2ccc(F)c(C)c2)c2ccc(F)c(C)c2)c1O [Compound 17] | – | > 80 | – | > 80 | – | ≤ 80 | – | ≤ 80
5 | COc1cc[n+]([O-])c(C(=O)N[C@@H](C)C(=O)O[C@@H](C)C(c2ccc(C)c(F)c2)c2ccc(C)c(F)c2)c1O [Compound 19] | – | > 80 | – | > 80 | – | ≤ 80 | – | ≤ 80
6 | COc1cc[n+]([O-])c(C(=O)N[C@@H](C)C(=O)O[C@@H](C)C(c2ccc(C)cc2C)c2ccc(C)cc2C)c1O [Compound 1, 2-(((S)-1-(((S)-1,1-bis(2,4-dimethylphenyl)propan-2-yl)oxy)-1-oxopropan-2-yl)carbamoyl)-3-hydroxy-4-methoxypyridine 1-oxide] | > 80 | > 80 | > 80 | > 80 | > 80 | > 80 | ≤ 80 | ≤ 80
7 | COc1cc[n+]([O-])c(C(=O)N[C@@H](C)C(=O)O[C@@H](C)[C@@H](c2ccc(F)cc2)c2ccc(F)cc2C)c1O [Compound 29] | > 80 | > 80 | > 80 | > 80 | > 80 | > 80 | > 80 | ≤ 80
8 | COc1ccc(C(c2ccc(OC)cc2F)[C@H](C)OC(=O)[C@H](C)NC(=O)c2c(O)c(OC)cc[n+]2[O-])c(F)c1 [Compound 3] | > 80 | > 80 | ≤ 80 | ≤ 80 | > 80 | > 80 | > 80 | ≤ 80
9 | COc1cc[n+]([O-])c(C(=O)N[C@@H](C)C(=O)O[C@@H](C)C(c2ccc(C)cc2)c2ccc(C)cc2)c1O [Compound 39] | – | > 80 | – | ≤ 80 | – | ≤ 80 | – | –
10 | COc1cc[n+]([O-])c(C(=O)N[C@@H](C)C(=O)O[C@@H](C)C(c2ccc(Cl)c(C)c2)c2ccc(Cl)c(C)c2)c1O [Compound 7] | – | > 80 | – | > 80 | – | > 80 | – | ≤ 80
11 | COc1ccc(C(c2ccc(OC)cc2)[C@H](C)OC(=O)[C@H](C)NC(=O)c2c(O)c(OC)cc[n+]2[O-])cc1 [Compound 26] | > 80 | – | > 80 | – | > 80 | – | > 80 | –
12 | COc1cc[n+]([O-])c(C(=O)N[C@@H](C)C(=O)O[C@@H](C)[C@H](c2ccc(F)cc2)c2ccc(F)cc2C)c1O [Compound 38] | – | > 80 | – | > 80 | – | ≤ 80 | – | –
